According to ChEMBL document CHEMBL1201862, “PubChem BioAssay data set” (2004):
Values belong to the compound of their own block, whether it stands above or below them. Calls of active or inactive are those of the source.

Experiments:
[1] = target: Protein kinase C theta type (Homo sapiens, UniProt Q04759); assay: Navigating the Kinome. Panel member name: PRKCQ; assay type: functional
[2] = target: Dual specificity protein kinase CLK2 (Homo sapiens, UniProt P49760); assay type: functional
[3] = target: Dual specificity mitogen-activated protein kinase kinase 1 (Homo sapiens, UniProt Q02750); assay: Navigating the Kinome. Panel member name: MAP2K1; assay type: functional
[4] = target: Serine/threonine-protein kinase TBK1 (Homo sapiens, UniProt Q9UHD2); assay: Navigating the Kinome. Panel member name: TBK1; assay type: functional
[5] = target: Serine/threonine-protein kinase D3 (Homo sapiens, UniProt O94806); assay type: functional;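 further: determined within a kinase panel screen, with PRKCN as the panel member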
[6] = target: Tyrosine-protein kinase Lck (Homo sapiens, UniProt P06239); assay type: functional;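 further: lck was assayed as one member of a kinase panel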
Activin receptor type-1 = Activin receptor type-1 (Homo sapiens, UniProt Q04771); assay: Navigating the Kinome. Panel member name: ACVR1; assay type: functional
[7] = target: Cell division cycle 7-related protein kinase (Homo sapiens, UniProt O00311); assay type: functional;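 further: value obtained from a kinome-wide kinase panel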
[8] = target: Calcium/calmodulin-dependent protein kinase type II subunit delta (Homo sapiens, UniProt Q13557); assay type: functional
Activated CDC42 kinase 1 = Activated CDC42 kinase 1 (Homo sapiens, UniProt Q07912); assay: Navigating the Kinome. Panel member name: ACK1; assay type: functional
[9] = target: Platelet-derived growth factor receptor beta (Homo sapiens, UniProt P09619); assay type: functional;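 further: value comes from a kinome panel, with PDGFRB tested as one panel member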
[10] = target: Dual specificity tyrosine-phosphorylation-regulated kinase 1B (Homo sapiens, UniProt Q9Y463); assay: Navigating the Kinome. Panel member name: DYRK1B; assay type: functional
Focal adhesion kinase 1 = Focal adhesion kinase 1 (Homo sapiens, UniProt Q05397); assay type: functional;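 further: measured as one member of a kinome panel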
[11] = target: Maternal embryonic leucine zipper kinase (Homo sapiens, UniProt Q14680); assay type: functional
[12] = target: Platelet-derived growth factor receptor alpha (Homo sapiens, UniProt P16234); assay: Navigating the Kinome. Panel member name: PDGFRA; assay type: functional
[13] = target: Cyclin-dependent kinase 7 (Homo sapiens, UniProt P50613); assay type: functional;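 further: value comes from a kinome-wide kinase profiling panel in which CDK7 is one member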
[14] = target: Cyclin-dependent kinase 9 (Homo sapiens, UniProt P50750); assay type: functional;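 further: value from the CDK9 entry of a kinome-spanning kinase panel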
[15] = target: Macrophage-stimulating protein receptor (Homo sapiens, UniProt Q04912); assay: Navigating the Kinome. Panel member name: MST1R; assay type: functional
[16] = target: Leukocyte tyrosine kinase receptor (Homo sapiens, UniProt P29376); assay: Navigating the Kinome. Panel member name: LTK; assay type: functional
[17] = target: Protein kinase C delta type (Homo sapiens, UniProt Q05655); assay type: functional
[18] = target: Serine/threonine-protein kinase D2 (Homo sapiens, UniProt Q9BZL6); assay type: functional;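 further: measured against PRKD2 as one member of a kinome-wide kinase profiling panel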
[19] = target: Serine/threonine-protein kinase Chk2 (Homo sapiens, UniProt O96017); assay type: functional;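 further: CHEK2 entry within a kinome-wide screening panel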
[20] = target: Rho-associated protein kinase 2 (Homo sapiens, UniProt O75116); assay type: functional
[21] = target: Cyclin-dependent kinase 2 (Homo sapiens, UniProt P24941); assay type: functional;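 further: CDK2 measured as one member of a broad kinome profiling panel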
[22] = target: MAP kinase-activated protein kinase 2 (Homo sapiens, UniProt P49137); assay type: functional;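 further: measured as one member of a kinome-wide kinase panel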
[23] = target: Casein kinase II subunit alpha (Homo sapiens, UniProt P68400); assay type: functional
[24] = target: Tyrosine-protein kinase ITK/TSK (Homo sapiens, UniProt Q08881); assay type: functional;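 further: affinity for ITK measured as one member of a broad kinase panel profiling binding across the kinome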
Insulin receptor = Insulin receptor (Homo sapiens, UniProt P06213); assay type: functional;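 further: insulin receptor kinase tested as one member of a kinome-wide kinase panel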
[25] = target: Mitogen-activated protein kinase 13 (Homo sapiens, UniProt O15264); assay type: functional
[26] = target: Protein kinase C gamma type (Homo sapiens, UniProt P05129); assay type: functional
[27] = target: Proto-oncogene tyrosine-protein kinase Src (Homo sapiens, UniProt P12931); assay type: functional;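 further: SRC entry within a kinome-wide kinase profiling panel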
[28] = target: Hepatocyte growth factor receptor (Homo sapiens, UniProt P08581); assay type: functional;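 further: kinase panel profiling across the kinome, with MET as the panel member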
[29] = target: Inhibitor of nuclear factor kappa-B kinase subunit alpha (Homo sapiens, UniProt O15111); assay type: functional
[30] = target: Cyclin-dependent kinase 5 (Homo sapiens, UniProt Q00535); assay type: functional;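 further: CDK5 measured as one member of a kinase profiling panel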
[31] = target: Interleukin-1 receptor-associated kinase 4 (Homo sapiens, UniProt Q9NWZ3); assay type: functional
[32] = target: RAC-alpha serine/threonine-protein kinase (Homo sapiens, UniProt P31749); assay type: functional;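 further: AKT1 affinity measured as one member of a kinome-wide kinase profiling panel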
[33] = target: Calcium/calmodulin-dependent protein kinase type 1 (Homo sapiens, UniProt Q14012); assay type: functional
[34] = target: Cyclin-dependent kinase 1 (Homo sapiens, UniProt P06493); assay type: functional;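 further: Kinome-wide panel profiling, with the target listed as panel member CDC2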
[35] = target: Serine/threonine-protein kinase pim-2 (Homo sapiens, UniProt Q9P1W9); assay type: functional;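 further: value comes from a broad kinase panel profiling study in which PIM2 was one of the panel members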
[36] = target: 3-phosphoinositide-dependent protein kinase 1 (Homo sapiens, UniProt O15530); assay type: functional;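 further: value comes from the Navigating the Kinome panel, PDPK1 member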
[37] = target: Fibroblast growth factor receptor 3 (Homo sapiens, UniProt P22607); assay type: functional
[38] = target: Serine/threonine-protein kinase PLK1 (Homo sapiens, UniProt P53350); assay type: functional;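 further: PLK1 measured as one member of a kinome-wide profiling panel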
[39] = target: Receptor tyrosine-protein kinase erbB-4 (Homo sapiens, UniProt Q15303); assay type: functional;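 further: ERBB4 member of a kinome-wide kinase profiling panel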
[40] = target: Mitogen-activated protein kinase 12 (Homo sapiens, UniProt P53778); assay type: functional;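 further: measured as one member of a kinome-wide kinase profiling panel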
[41] = target: Serine/threonine-protein kinase MRCK alpha (Homo sapiens, UniProt Q5VT25); assay type: functional
[42] = target: Inhibitor of nuclear factor kappa-B kinase subunit beta (Homo sapiens, UniProt O14920); assay type: functional
[43] = target: Epidermal growth factor receptor (Homo sapiens, UniProt P00533)

Focal adhesion kinase 1, sequence (Q05397 whole entry): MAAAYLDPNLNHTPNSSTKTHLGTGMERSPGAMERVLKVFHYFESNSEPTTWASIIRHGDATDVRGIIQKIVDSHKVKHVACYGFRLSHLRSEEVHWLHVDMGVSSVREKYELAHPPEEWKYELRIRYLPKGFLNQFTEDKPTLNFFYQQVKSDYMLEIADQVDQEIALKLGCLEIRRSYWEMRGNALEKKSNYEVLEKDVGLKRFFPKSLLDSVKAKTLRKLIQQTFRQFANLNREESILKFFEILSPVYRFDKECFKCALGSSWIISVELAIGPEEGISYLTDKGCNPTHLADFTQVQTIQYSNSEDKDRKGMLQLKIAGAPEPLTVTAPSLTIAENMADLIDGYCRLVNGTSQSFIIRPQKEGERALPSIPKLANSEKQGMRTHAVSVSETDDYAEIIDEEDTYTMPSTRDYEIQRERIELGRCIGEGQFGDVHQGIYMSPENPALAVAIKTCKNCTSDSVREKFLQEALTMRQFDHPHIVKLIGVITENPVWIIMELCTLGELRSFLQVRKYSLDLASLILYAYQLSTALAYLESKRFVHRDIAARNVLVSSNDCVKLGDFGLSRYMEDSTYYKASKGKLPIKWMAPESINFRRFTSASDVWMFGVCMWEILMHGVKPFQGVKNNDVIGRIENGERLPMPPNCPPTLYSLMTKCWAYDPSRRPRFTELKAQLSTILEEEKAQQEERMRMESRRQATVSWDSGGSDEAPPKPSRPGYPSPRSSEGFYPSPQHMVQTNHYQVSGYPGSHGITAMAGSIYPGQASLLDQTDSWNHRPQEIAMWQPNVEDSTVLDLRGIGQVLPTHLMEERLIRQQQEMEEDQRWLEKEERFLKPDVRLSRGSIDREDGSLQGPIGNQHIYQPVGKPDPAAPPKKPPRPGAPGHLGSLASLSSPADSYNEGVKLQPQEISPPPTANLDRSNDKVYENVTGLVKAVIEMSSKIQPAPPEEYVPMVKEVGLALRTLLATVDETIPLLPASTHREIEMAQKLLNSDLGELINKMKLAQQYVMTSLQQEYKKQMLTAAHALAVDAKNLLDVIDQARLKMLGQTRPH
Receptor tyrosine-protein kinase erbB-4, sequence (Q15303 whole entry): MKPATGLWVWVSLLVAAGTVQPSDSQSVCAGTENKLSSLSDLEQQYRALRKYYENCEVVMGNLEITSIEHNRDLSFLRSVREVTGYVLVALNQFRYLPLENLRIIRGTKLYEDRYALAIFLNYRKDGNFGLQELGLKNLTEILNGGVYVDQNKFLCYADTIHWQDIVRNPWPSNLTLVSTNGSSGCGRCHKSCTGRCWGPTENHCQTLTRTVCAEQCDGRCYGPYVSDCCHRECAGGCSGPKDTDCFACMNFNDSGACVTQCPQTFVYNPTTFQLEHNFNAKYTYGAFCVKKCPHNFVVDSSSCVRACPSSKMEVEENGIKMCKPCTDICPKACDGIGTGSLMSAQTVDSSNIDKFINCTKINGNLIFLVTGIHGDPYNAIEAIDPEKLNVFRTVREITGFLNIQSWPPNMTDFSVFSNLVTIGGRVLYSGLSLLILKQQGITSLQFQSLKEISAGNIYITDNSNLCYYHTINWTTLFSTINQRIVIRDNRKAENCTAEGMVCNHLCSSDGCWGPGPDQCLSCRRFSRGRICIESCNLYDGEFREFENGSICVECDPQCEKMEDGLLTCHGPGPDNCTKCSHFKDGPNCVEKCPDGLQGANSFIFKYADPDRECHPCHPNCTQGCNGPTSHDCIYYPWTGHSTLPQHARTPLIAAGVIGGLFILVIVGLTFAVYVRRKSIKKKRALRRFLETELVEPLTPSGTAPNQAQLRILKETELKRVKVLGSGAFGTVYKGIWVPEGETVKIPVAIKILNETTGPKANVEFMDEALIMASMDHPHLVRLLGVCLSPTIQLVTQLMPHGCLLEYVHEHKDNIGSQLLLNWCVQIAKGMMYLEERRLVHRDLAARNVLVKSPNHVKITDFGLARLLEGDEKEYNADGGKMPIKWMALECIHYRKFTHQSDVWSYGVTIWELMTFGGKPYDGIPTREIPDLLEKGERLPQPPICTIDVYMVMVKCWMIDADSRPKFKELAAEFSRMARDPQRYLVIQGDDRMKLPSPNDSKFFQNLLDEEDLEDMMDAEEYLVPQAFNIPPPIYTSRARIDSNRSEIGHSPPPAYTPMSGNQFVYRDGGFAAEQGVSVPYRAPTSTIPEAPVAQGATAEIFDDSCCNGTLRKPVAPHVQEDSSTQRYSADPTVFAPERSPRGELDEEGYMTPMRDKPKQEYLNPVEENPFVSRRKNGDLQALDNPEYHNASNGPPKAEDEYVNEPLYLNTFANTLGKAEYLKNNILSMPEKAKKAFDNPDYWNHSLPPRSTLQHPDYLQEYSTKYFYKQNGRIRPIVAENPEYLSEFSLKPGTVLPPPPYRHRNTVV
Serine/threonine-protein kinase D2, sequence (Q9BZL6 whole entry): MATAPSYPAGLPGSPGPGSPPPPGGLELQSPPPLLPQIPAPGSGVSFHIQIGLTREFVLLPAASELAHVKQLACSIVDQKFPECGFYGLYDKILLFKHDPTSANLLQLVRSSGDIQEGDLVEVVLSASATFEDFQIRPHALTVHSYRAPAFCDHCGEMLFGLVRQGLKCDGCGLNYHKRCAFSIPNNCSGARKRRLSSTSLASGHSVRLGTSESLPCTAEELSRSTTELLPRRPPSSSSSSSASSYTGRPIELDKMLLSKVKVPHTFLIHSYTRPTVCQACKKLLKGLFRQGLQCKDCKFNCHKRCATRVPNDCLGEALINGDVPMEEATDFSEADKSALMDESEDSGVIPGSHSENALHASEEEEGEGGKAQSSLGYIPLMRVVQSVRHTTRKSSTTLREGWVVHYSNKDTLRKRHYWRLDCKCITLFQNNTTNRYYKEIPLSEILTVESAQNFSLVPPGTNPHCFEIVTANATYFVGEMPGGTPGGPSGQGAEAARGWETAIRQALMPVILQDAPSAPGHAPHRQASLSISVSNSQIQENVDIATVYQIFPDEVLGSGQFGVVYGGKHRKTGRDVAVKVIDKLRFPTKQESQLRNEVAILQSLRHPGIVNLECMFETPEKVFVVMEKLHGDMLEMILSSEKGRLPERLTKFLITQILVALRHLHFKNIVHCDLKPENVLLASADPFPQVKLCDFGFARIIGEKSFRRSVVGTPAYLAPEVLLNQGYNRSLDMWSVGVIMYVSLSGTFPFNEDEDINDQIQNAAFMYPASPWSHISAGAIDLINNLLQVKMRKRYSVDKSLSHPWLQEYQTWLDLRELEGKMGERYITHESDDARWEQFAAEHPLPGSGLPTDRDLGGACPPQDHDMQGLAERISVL
Dual specificity mitogen-activated protein kinase kinase 1, sequence (Q02750 whole entry): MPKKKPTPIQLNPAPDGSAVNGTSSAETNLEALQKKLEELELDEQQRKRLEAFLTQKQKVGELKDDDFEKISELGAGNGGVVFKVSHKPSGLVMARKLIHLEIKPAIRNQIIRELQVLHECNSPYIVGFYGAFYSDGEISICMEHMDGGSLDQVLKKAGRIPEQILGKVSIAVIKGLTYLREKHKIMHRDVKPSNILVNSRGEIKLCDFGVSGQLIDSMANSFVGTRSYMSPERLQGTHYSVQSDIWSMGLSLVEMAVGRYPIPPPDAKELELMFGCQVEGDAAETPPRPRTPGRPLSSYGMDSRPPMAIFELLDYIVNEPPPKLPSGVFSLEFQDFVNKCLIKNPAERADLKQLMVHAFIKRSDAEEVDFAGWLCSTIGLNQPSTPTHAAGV
Hepatocyte growth factor receptor, sequence (P08581 whole entry): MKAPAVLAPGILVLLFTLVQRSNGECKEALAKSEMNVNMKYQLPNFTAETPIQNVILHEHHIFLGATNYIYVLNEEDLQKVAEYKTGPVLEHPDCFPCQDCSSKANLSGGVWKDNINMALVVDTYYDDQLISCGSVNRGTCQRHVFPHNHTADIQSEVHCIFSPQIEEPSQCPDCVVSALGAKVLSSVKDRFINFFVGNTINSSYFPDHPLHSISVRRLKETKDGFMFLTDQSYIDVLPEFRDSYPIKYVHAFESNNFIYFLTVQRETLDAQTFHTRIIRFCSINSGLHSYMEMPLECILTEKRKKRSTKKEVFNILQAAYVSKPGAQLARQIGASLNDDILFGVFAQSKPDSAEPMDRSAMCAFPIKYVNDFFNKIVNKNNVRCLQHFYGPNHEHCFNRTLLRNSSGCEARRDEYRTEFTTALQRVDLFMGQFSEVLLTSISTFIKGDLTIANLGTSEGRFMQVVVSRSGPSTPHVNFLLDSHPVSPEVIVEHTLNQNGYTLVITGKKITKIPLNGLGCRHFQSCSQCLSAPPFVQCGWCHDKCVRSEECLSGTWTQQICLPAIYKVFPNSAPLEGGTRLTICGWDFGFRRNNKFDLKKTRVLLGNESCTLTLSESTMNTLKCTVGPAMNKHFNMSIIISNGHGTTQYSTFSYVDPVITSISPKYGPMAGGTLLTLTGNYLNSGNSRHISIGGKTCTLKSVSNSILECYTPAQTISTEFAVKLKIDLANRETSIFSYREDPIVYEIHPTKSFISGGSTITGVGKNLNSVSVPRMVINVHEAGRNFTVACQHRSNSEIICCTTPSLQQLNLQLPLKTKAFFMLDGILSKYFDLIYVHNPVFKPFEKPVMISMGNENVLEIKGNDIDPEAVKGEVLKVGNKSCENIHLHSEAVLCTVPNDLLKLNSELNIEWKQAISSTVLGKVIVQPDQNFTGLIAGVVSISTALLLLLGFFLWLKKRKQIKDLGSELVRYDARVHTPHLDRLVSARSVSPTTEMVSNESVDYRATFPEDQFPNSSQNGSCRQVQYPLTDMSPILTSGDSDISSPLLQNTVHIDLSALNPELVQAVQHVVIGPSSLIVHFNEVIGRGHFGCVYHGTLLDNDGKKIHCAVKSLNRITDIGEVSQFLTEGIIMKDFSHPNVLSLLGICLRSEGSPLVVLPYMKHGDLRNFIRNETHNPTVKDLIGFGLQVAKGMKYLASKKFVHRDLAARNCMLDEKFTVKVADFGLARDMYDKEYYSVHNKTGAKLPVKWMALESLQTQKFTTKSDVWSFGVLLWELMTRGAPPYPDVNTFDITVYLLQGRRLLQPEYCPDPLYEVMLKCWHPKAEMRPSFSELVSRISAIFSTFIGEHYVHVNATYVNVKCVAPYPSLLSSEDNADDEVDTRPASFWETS

- Ki [1]: 7.94 nM (active)
- Ki [2]: 39.8 nM (active)
- Ki [3]: 200 nM (active)
- Ki [4]: 2000 nM (active)
- Ki [5]: 15.8 nM (active)
- Ki [6]: 5010 nM (active)
- Ki (Activin receptor type-1): 2510 nM (active)
- Ki [7]: 0.316 nM (active)
- Ki [8]: 1260 nM (active)
- Ki (Activated CDC42 kinase 1): > 3980 nM (inactive)
- Ki [9]: 1000 nM (active)
- Ki [10]: 25.1 nM (active)
- Ki (Focal adhesion kinase 1): > 6310 nM (inactive)
- Ki [11]: 3.16 nM (active)
- Ki [12]: > 2510 nM (inactive)
- Ki [13]: 100 nM (active)
- Ki [14]: 5.01 nM (active)
- Ki [15]: 79.4 nM (active)
- Ki [16]: 501 nM (active)
SMILES: CN(C)C1CCC(Nc2nc(Cl)cc(-c3c[nH]c4ncccc34)n2)CC1 (configuration not stated)

SMILES: NC(COc1cncc(-c2cc3ccncc3s2)c1)Cc1c[nH]c2ccccc12 (configuration not stated)
- Ki [17]: 50.1 nM (active)
- Ki [18]: 316 nM (active)
- Ki [19]: 398 nM (active)
- Ki [20]: 10 nM (active)
- Ki [21]: 158 nM (active)
- Ki [22]: > 7940 nM (inactive)
- Ki [23]: 398 nM (active)
- Ki [24]: > 1580 nM (inactive)
- Ki (Insulin receptor): > 5010 nM (inactive)
- Ki [25]: 7940 nM (active)
- Ki [26]: 398 nM (active)
- Ki [27]: > 2510 nM (inactive)
- Ki [28]: > 3160 nM (inactive)
- Ki [29]: > 3980 nM (inactive)
- Ki [30]: 316 nM (active)
- Ki [31]: 1580 nM (active)
- Ki [32]: 12.6 nM (active)
- Ki [33]: 3160 nM (active)
- Ki [34]: 158 nM (active)
- Ki [35]: > 1580 nM (inactive)
- Ki [36]: 251 nM (active)
- Ki [37]: > 2000 nM (inactive)
- Ki [38]: > 7940 nM (inactive)
- Ki [39]: > 3980 nM (inactive)
- Ki [40]: 2000 nM (active)
- Ki [41]: 200 nM (active)
- Ki [42]: > 3160 nM (inactive)
- Ki [43]: 1580 nM (active)
